Measured values published in patent US5574059A, “Treating disorders mediated by vascular smooth muscle cell proliferation” (priority 1995, dated 1996).
“Also recorded” adds a separate entry of the source.

Experiments:
[1] = tested on: I2 imidazoline receptors; assay: inhibition of 3H-idazoxan (5 nM) binding to rat aortic smooth muscle cell membranes; conditions: for inhibition of 3H-idazoxan binding, in words / Ki: 3H-idazoxan 5 nM; for Ki: Table 2, rat aortic smooth muscle cell membranes, read-out: Ki
Protocol: (§1) Binding to I2 imidazoline receptors is determined by the following assay. Membranes are prepared from cultured cells for ligand binding as described in Regunathan, S., et al, Biochem. Pharmacol. 45, 1667-1675 (1993) and Regunathan, S., et al, J. Neurosci. Res. 34, 681-688 (1993) and the disclosure in these on this is incorporated herein by reference. In particular, harvested rat aortic smooth muscle cells are homogenized in Hepes-sucrose buffer (pH 7.4) with a Teflon-glass homogenizer and centrifuged at 1000 × g for 10 minutes. The pellets are suspended in ice-cold Tris-HCl buffer (pH 7.7) with 5mM ethylene diamine tetracetic acid and homogenized using a Polytron (Brinkman Instruments) for 10 seconds. The homogenate is centrifuged at 40,000 × g for 30 minutes to produce a membrane pellet. The membrane pellet is washed three times by resuspending in buffer and re-centrifuging. The washed pellet is suspended in fresh Tris-HCl buffer (pH 7.4) to provide approximately 100 μg protein per assay tube. Binding assays are performed in Tris-HCl buffer (pH 7.7) using 5 nM of […]. Non-specific binding is defined by 100 μM of unlabelled idazoxan which will inhibit the specific binding of ^3 H-idazoxan. Thus the binding remaining in the presence 100 μM of idazoxan is due to non-specific binding and this will be substracted from total binding to calculate the specific binding. Following incubation at 25° C. for 30 minutes, reaction is terminated by rapid vacuum filtration over Whatman GF/B filters and washed with 10 ml of ice-cold buffer. Filters are suspended in scintillation fluid and radioactivity counted in a liquid scintillation counter. Membrane protein is assayed by Coomassie Blue method (Pierce) using bovine serum albumin as standard.
Determination of inhibition constant (Ki) for each drug is determined as follows: The binding of ^3 H-idazoxan to membranes of vascular smooth muscle cells is determined in the presence of 0.1 nM to 100 μM concentrations of potential drug. The percent inhibition of specific binding of ^3 H-idazoxan by each concentration is calculated and plotted against concentration. The data is analyzed by non-linear curve fitting program, LIGAND and the IC50 value for each potential drug is calculated. The affinity for each drug (Ki) for I2 imidazoline receptors is calculated using the formula Ki =IC50 /1+L/Kd where L is the concentration of ^3 H-idazoxan used for binding and Kd is the dissociation constant for ^3 H-idazoxan for I2 imidazoline receptors. The dissociation constant (Kd) is determined by Scatchard analysis of the saturation binding of ^3 H-idazoxan using the formula [formula] where B and F are the amount of bound and free ligand, respectively, and Bmax is the number of binding sites.
(§2) Primary cultures of rat-aortic smooth muscle cells were prepared by a modification (described in Erlinge, Do, et al, Am. J. Physiol. 265, H1089-1097, 1993) of the method of Meyer-Lehnert and Schrier (Meyer-Lehnert, H., et al, Hypertension 13,350-361, 1989), the disclosure of these cited articles being incorporated herein by reference. Briefly, rats were killed by anesthetic overdose and the aorta were removed and incubated with collagenase (2 mg/ml) in Dulbecco's modified Eagle's minimum essential medium (DMEM). The vessel was stripped of adventitia, cut longitudinally and the intima scraped away. After further collagenase treatment, the remaining tissue was passed 20 times through 18 and 16 gauge needles. The resulting cell suspension was centrifuged at 500 × g for 5 minutes and resuspended in DMEM containing penicillin (100 units/ml), streptomycin (100 μg/ml), 2 mM L-glutamine and 10% fetal calf serum. The suspended cells were plated in T-75 flasks, cultured until confluent, and subcultured in 100 mm plates. The confluent cells were harvested and membranes were prepared. Cell viability was determined by trypan blue exclusion.

[2] = tested on: rat aortic smooth muscle cells; assay: serum-stimulated proliferation, 3H-thymidine incorporation into DNA; format: cell-based; conditions: 10% fetal calf serum stimulated; for 3H-thymidine incorporated (IC50), N symbol / IC50: 24 h; for IC50: Rattus norvegicus, read-out: 3H-thymidine incorporated (IC50)
Protocol: (§3) Inhibition of serum-stimulated proliferation of rat aortic smooth muscle cells is determined as follows: The antiproliferative effect of potential drug is determined by measuring the incorporation of ^3 H-thymidine into cellular DNA. Exposure of quiescent vascular smooth muscle cell to serum, which contains many growth factors, results in a large increase in cellular proliferation as measured by ^3 H-thymidine incorported into DNA. The inhibitory effect of potential drug on serum-stimulated proliferation is tested by adding a drug before the addition of serum and determining if the serum-stimulated proliferation is reduced. […] In that event, antagonizing of the antiproliferative effect of idazoxan is determined by adding antagonist before the addition of idazoxan to serum-stimulated vascular smooth muscle cells.
In this experiment, the proliferation of vascular smooth muscle cells was determined by measuring DNA replication. The incorporation of ^3 H-thymidine into DNA was used to measure the replication of DNA as described in Erlinge, D., et al, Am. J. Physiol. 265, H1089-H1097 (1993) which is incorporated herein by reference.
(§4) Rat aortic smooth muscle cells prepared as described in In Vitro Example 1 were plated into 24-well plates at a density of about 30,000 cells/well in 10% fetal calf serum (FCS). After 48 hours, the cells were starved in 0.5% FCS for another 48 hours to decrease proliferation and induce quiescence. The medium was replaced by serum-free medium 24 hours prior to addition of drug (drugs are described below) and 10% fetal calf serum or only 10% fetal calf serum in the case of the control. The cells were then incubated for 24 hours and ^3 H-thymidine (1 μCi/well) was added at hour 20. At the end of the 24 hour period, the medium was aspirated and the cells were washed three times with phosphate-buffered saline and twice with ice-cold trichloroacetic acid. Fixed cells were then solubilized in 0.2M NaOH and sonicated. A 100 μl aliquot was used for scintillation counting.

[3] = tested on: rat aortic smooth muscle cells; assay: antagonism of the antiproliferative effect in serum-stimulated smooth muscle cells; format: cell-based
Protocol: as §3
as §4, with “After” for “Rat aortic smooth muscle cells prepared as described in In Vitro Example 1 were plated into 24-well plates at a density of about 30,000 cells/well in 10% fetal calf serum (FCS). After”
To test this, the effect of tolazoline (100 μM) on the concentration/response curve was determined.

[4] = tested on: α2 -adrenergic receptors; assay: specific binding of 3H-PAC and 3H-rauwolscine to smooth muscle cell membranes; set-up: species or system rat; conditions: for specific binding of 3H-PAC / 3H-rauwolscine: 5 nM ligand, non-specific binding defined by 100 μM cold ligand; for binding selectivity of radioligand, in words (α2-adrenergic receptors): with epinephrine competition
Protocol: as §2, with “exclusion. Smooth muscle cells were phenotypically defined by immunostaining with anti-smooth muscle actin (Sigma). The cultured cells were usually used for only about 10 passages after which they were replaced by freshly prepared cells.” for “exclusion.”
Membranes were prepared from the cultured cells as described in Regunathan et al, Biochem. Pharmacol. 45, 1667-1675 (1993). Membranes were incubated with 5 nM of ^3 H-idazoxan, ^3 H-PAC or ^3 H-rauwolscine with non-specific binding defined by 100 μM cold ligand as described above.

[5] = tested on: I2 imidazoline receptors; assay: saturation/specific binding of 3H-idazoxan to smooth muscle cell membranes (Scatchard analysis); set-up: species or system rat
Protocol: as §1, with “Membrane protein is assayed by Coomassie Blue method (Pierce) using bovine serum albumin as standard.” left out
Primary cultures of rat-aortic smooth muscle cells were prepared by a modification (described in Erlinge, Do, et al, Am. J. Physiol. 265, H1089-1097, 1993) of the method of Meyer-Lehnert and Schrier (Meyer-Lehnert, H., et al, Hypertension 13,350-361, 1989), the disclosure of these cited articles being incorporated herein by reference. […] Cell viability was determined by trypan blue exclusion.

Row | SMILES | inhibition of 3H-idazoxan binding, in words [1] | Ki [1] | inhibition of vascular smooth muscle cell proliferation, in words [2] | 3H-thymidine incorporated (IC50), N symbol [2] | further results
1 | N=C(N)NC(=O)c1nc(Cl)c(N)nc1N [Amiloride] | low | 75 ± 9.6 µM |  |  | 
2 | COC(=O)[C@H]1[C@H]2C[C@H]3c4[nH]c5ccccc5c4CCN3C[C@H]2CC[C@@H]1O [Rauwolscine] | without effect | > 100 µM | had no effect | N | effect of rauwolscine on the anti-proliferative response [3]: blocked
3 | Clc1cccc(Cl)c1N=C1NCCN1 [Clonidine] |  | 2.5 ± 0.65 µM | had no effect | N | 
4 | N=C(N)N/N=C/c1c(Cl)cccc1Cl [Guanabenz] | low | 51 ± 6.5 µM |  |  | 
5 | COc1nc(C)nc(Cl)c1N=C1NCCN1 [Moxonidine] | low | 55 ± 4 µM | had no effect | N | 
6 | c1ccc2c(CC3=NCCN3)cccc2c1 [Naphazoline, 2-(1-naphthylmethyl) imidazoline] |  |  |  |  | IC50 [2]: 52.3 ± 5.6 µM
7 | CNC[C@H](O)c1ccc(O)c(O)c1 [Epinephrine] |  |  |  |  | reduction of 3H-idazoxan binding ([1]; even at 100 μM epinephrine, failed to reduce by greater than): ≤ 10%; inhibition of specific binding of 3H-PAC ([4]; epinephrine 10 μM): completely inhibited; inhibition of specific binding of 3H-rauwolscine ([4]; epinephrine 10 μM): completely inhibited
8 | c1ccc(CC2=NCCN2)cc1 [Tolazoline] | binding with high affinity | 0.256 ± 0.023 µM | without any effect; also recorded: failed to inhibit cellular proliferation | N | effect on the concentration/response curve for idazoxan ([3]; tolazoline 100 μM): markedly shifted the concentration/response curve for idazoxan to the right
9 | C1COC(NC(C2CC2)C2CC2)=N1 [Rilmenidine] | low | 85 ± 9 µM | had no effect | N | 
10 | Cc1ccc(N(CC2=NCCN2)c2cccc(O)c2)cc1 [Phentolamine] |  | 10.5 ± 1.4 µM |  | N | 
11 | Nc1cc(Cl)c(NC2=NCCN2)c(Cl)c1 [^3 H-PAC] |  |  |  |  | specific binding of 3H-PAC / 3H-rauwolscine [4]: greater than 70%; binding selectivity of radioligand, in words (α2-adrenergic receptors) [4]: primarily bind to α2 -adrenergic receptors
12 | c1ccc(C2CC2)c(OCC2=NCCN2)c1 [Cirazoline, cyclopropyl phenoxy imidazoline] |  |  |  |  | IC50 [2]: 286 ± 19 µM
13 | COC(=O)C1C(O)CCC2CN3CCc4c([nH]c5ccccc45)C3CC21 (stereo not drawn) [^3 H-rauwolscine] |  |  |  |  | specific binding of 3H-PAC / 3H-rauwolscine [4]: greater than 70%; binding selectivity of radioligand, in words (α2-adrenergic receptors) [4]: primarily bind to α2 -adrenergic receptors
14 | c1ccc2c(c1)OCC(C1=NCCN1)O2 (stereo not drawn) [^3 H-idazoxan] |  |  |  |  | specific binding of 3H-idazoxan ([5]; 5 nM ligand, non-specific binding defined by 100 μM cold ligand): greater than 70%; Kd ([5]; Scatchard analysis, single-site fit, in presence of 10 μM epinephrine): 0.0089 ± 0.0012 µM; binding selectivity of radioligand, in words (non-adrenergic sites) ([5]; with epinephrine competition): binds almost exclusively to non-adrenergic sites
